IC50 data for eight compounds are collected here from patent US20240376124A1, “Macrocyclic Kinase Inhibitors” (Incyte Corporation, priority 2023, published 2024).

Values joined by “and” are separate entries in the source; they are usually repeats but may differ in a detail not shown here. Equal values may be shown once.

The target in test [1] is T1, pseudo-kinase domain (JH2, amino-acids 536-812) of human Wild Type JAK2 (Homo sapiens, UniProt O60674, F794H/W659A/W777A).
T1 construct: pseudo-kinase domain (JH2, amino-acids 536-812 with 3 surface mutations W659A, W777A, F794H); His (C); purchased BPS Bioscience 79463; host or cells: baculovirus expression system
The test can be described thus: JAK2 LanthaScreen JH2-WT Binding Assay. The following applies: 50 nM tracer, read-out: JH2BIND_WT IC50. How it is done:
Example B. JAK2 LanthaScreen JH2-WT Binding Assay
(§1) JAK2 JH2-WT binding assay utilizes pseudo-kinase domain (JH2, amino-acids 536-812 with 3 surface mutations W659A, W777A, F794H) of human Wild Type JAK2 expressed as C-terminal His-Avi-tagged, biotinylated protein in a baculovirus expression system (BPS Bioscience, Catalog #79463). The assay was conducted in black 384-well polystyrene plates in a final reaction volume of 20 μL. JAK2 JH2-WT (0.145 nM) was incubated with compounds (100 nL serially diluted in DMSO) in the presence of 50 nM Fluorescent JAK2-JH2 Tracer (MedChem Express Catalog #HY-102055) and 0.25 nM Streptavidin-Tb cryptate (Cisbio Part #610SATLB) in assay buffer (50 mM Tris, pH=7.5, 10 mM MgCl2, 0.01% Brij-35, 0.1% BSA, 1 mM EGTA, 5% Glycerol and 5 mM DTT). Non-specific binding was accessed in the presence of 2 mM ATP. After incubation for 1 hour at 25° C., LanthaScreen signals were read on a PHERAstar FS plate reader (BMG LABTECH). Data was analyzed with IDBS XLfit and GraphPad Prism 5.0 software using a four parameter dose response curve to determine IC50 for each compound.
A general note: Time-resolved FRET reads energy transfer from a long-lived donor to a nearby acceptor.

Test [2] addresses T2, catalytic domain (JH1, amino acids 826-1132) of human JAK2 (Homo sapiens, UniProt O60674).
T2 construct: catalytic domain (JH1, amino acids 826-1132) of human JAK2; FLAG (N); purchased Carna Biosciences 08-445-20N; host or cells: baculovirus expression system
The test can be described thus: JAK2 LanthaScreen JH1 binding assay. The following applies: JAK2 JH1, 50 nM tracer; read-out: JH1BIND IC50. How it is done: Example A. JAK2 LanthaScreen […] Binding Assay
JAK2 JH1 binding assay utilizes catalytic domain (JH1, amino acids 826-1132) of human JAK2 expressed as N-terminal FLAG-tagged, biotinylated protein in a baculovirus expression system (Carna Biosciences, Product #08-445-20N). The assay was conducted in black 384-well polystyrene plates in a final reaction volume of 20 μL. JAK2 JH1 (1.5 nM) was incubated with compounds (100 nL serially diluted in DMSO) in the presence of 50 nM fluorescent JAK2-JH1 tracer and 0.5 nM Streptavidin-Tb cryptate (Cisbio Part #610SATLB) in assay buffer (50 mM Tris, pH=7.5, 10 mM MgCl2, 0.01% Brij-35, 0.1% BSA, 1 mM EGTA, […] and 5 mM DTT). Non-specific binding was accessed in the presence of 2 mM ATP. After incubation for 2 hours at 25° C., LanthaScreen signals were read on a PHERAstar FS plate reader (BMG LABTECH).
Data was analyzed with IDBS XLfit and GraphPad Prism 5.0 software using a four parameter dose response curve to determine IC50 for each compound.

Test [3] has as its target T3, catalytic domain (JH1, amino acids 808-1132) of human JAK2 (Homo sapiens, UniProt O60674).
T3 construct: catalytic domain (JH1, amino acids 808-1132) of human JAK2; His (N); purchased BPS Bioscience 40450; host or cells: baculovirus expression system
The test can be described thus: JAK2 HTRF Enzyme Activity Assay. The following applies: ATP 30 μM; read-out: ENZ 30UMATP IC50. Format: biochemical. How it is done: Example D. JAK2 HTRF Enzyme Activity Assay
JAK2 enzyme activity assays utilize catalytic domain (JH1, amino acids 808-1132) of human JAK2 expressed as N-terminal His-tagged protein in a baculovirus expression system (BPS Bioscience, Catalog #40450). The assays was conducted in black 384-well polystyrene plates in a final reaction volume of 20 μL. JAK2 (0.015 nM) was incubated with compounds (100 nL serially diluted in DMSO) in the presence of ATP (30 μM or 1 mM) and 500 nM Biotin-labeled EQEDEPEGDYFEWLE (SEQ ID NO.: 1) peptide (BioSource International, custom synthesis) in assay buffer (50 mM Tris, pH=7.5, 10 mM MgCl2, 0.01% Brij-35, 0.1% BSA, 1 mM EGTA, 5% Glycerol and 5 mM DTT) for 60 minutes at 25° C. The reactions were stopped by the addition of 10 μL of detection buffer (50 mM Tris, pH 7.8, 0.5 mg/mL BSA, 150 mM NaCl), supplemented with EDTA, LANCE Eu-W1024 anti-phosphotyrosine (PY20), (PerkinElmer, Catalog #AD0067) and Streptavidin SureLight APC (PerkinElmer Catalog #CR130-100), for a final concentration of 15 mM, 1.5 nM and 75 nM, respectively. HTRF signals were read after 30 minutes incubation at room temperature on a PHERAstar FS plate reader (BMG LABTECH). Data was analyzed with IDBS XLfit and GraphPad Prism 5.0 software using a four parameter dose response curve to determine IC50 for each compound. The compounds of the disclosure were tested in one or more of the assays described in Examples A-D, and the resulting data are shown in Table A.

Test [4] deals with T4, pseudo-kinase domain (JH2, amino-acids 536-812) of human V617F mutant JAK2 (Homo sapiens, UniProt O60674, F794H/V617F/W659A/W777A).
T4 construct: pseudo-kinase domain (JH2, amino-acids 536-812 with 3 surface mutations W659A, W777A, F794H); His (C); purchased BPS Bioscience 79498; host or cells: baculovirus expression system
The test can be described thus: JAK2 LanthaScreen JH2-V617F Binding Assay. The conditions noted are these: 50 nM tracer, read-out: JH2BINDING—V617F IC50. Here is the method:
Example C. JAK2 LanthaScreen JH2-V617F Binding Assay
as §1, with “JH2-V617F” for “JH2-WT”, “V617F mutant” for “Wild Type”, “#79498).” for “#79463).”, “JH2-V617F (0.26” for “JH2-WT (0.145”

T4 sequence (O60674 536-812 V617F/W659A/W777A/F794H): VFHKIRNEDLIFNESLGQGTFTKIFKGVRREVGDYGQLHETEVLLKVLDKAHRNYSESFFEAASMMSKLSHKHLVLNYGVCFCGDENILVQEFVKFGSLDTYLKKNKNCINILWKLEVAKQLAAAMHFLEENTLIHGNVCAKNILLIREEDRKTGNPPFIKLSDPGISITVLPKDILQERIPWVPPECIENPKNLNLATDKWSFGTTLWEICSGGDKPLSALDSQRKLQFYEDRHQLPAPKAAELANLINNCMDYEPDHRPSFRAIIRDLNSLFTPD
T2 sequence (O60674 826-1132): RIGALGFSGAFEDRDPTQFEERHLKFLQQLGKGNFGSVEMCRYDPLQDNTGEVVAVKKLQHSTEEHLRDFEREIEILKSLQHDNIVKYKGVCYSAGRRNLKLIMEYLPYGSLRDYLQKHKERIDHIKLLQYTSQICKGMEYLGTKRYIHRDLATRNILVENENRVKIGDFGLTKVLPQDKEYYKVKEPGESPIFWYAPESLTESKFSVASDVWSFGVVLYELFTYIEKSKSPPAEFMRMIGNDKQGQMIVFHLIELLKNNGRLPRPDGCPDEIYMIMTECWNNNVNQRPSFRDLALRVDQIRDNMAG
T3 sequence (O60674 808-1132): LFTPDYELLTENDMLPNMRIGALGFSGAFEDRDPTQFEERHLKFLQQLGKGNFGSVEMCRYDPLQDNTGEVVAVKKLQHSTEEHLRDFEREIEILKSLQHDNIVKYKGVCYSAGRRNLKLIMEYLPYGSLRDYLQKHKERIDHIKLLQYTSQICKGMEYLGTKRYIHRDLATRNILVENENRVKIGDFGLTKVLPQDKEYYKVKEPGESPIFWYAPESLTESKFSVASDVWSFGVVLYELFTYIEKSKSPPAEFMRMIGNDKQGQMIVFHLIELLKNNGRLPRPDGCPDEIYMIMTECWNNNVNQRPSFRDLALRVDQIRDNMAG
T1 sequence (O60674 536-812 W659A/W777A/F794H): as the sequence (O60674 536-812 V617F/W659A/W777A/F794H) above, with F82V counted along it

On to `[2H]C([2H])([2H])n1c(=O)n2c3c4c(c(-c5cn(CC)nc5F)[nH]c4ncc31)-c1ccc(cc1)OCC/C=C/C[C@]1(NC(=O)[C@H]3C[C@H]3F)CC[C@@H]2CC1` [Example 12, (1R,2R)-N-((3^1S,3^4s,E)-2^7-(1-ethyl-3-fluoro-1H-pyrazol-4-yl)-2^3-(methyl-d3)-2^2-oxo-2^1,2^2,2^3,2^6-tetrahydro-9-oxa-2(8,1)-imidazo[4,5-d]pyrrolo[2,3-b]pyridina-1(1,4)-benzena-3(1,4)-cyclohexanacyclononaphan-5-en-3^4-yl)-2-fluorocyclopropane-1-carboxamide], for which the IC50 in test [1] was not above 10 nM; in test [2] it was 500 to 1000 nM and > 1000 nM; in test [3], 500 to 1000 nM and > 1000 nM; in test [4], not above 10 nM.
As to `[2H]C([2H])([2H])n1c(=O)n2c3c4c(c(-c5cn(C)nc5OC)[nH]c4ncc31)-c1ccc(cc1)CNCC[C@]1(NC(=O)C3CC3)CC[C@@H]2CC1` [Example 7, N-((3^1s,3^4s)-2^7-(3-Methoxy-1-methyl-1H-pyrazol-4-yl)-2^3-(methyl-d)-2^2-oxo-2^1,2^2,2^3,2^6-tetrahydro-6-aza-2(8,1)-imidazo[4,5-d]pyrrolo[2,3-b]pyridina-1(1,4)-benzena-3(1,4)-cyclohexanacycloheptaphane-3^4-yl)cyclopropanecarboxamide], the IC50 is not above 10 nM in test [1], more than 1000 nM in test [2], more than 1000 nM in test [3] and 10 to 100 nM in test [4].
For “N-((3^1r,3^4s)-2^7-(3-Methoxy-1-methyl-1H-pyrazol-4-yl)-2^3-(methyl-d3)-2^2-oxo-2^1,2^2,2^3,2^6-tetrahydro-9-oxa-2(8,1)-imidazo[4,5-d]pyrrolo[2,3-b]pyridina-1(1,4)-benzena-3(1,4)-cyclohexanacyclononaphane-3^4-yl)cyclopropanecarboxamide [Example 4]”, the IC50 was not above 10 nM in test [1], more than 1000 nM in test [2], more than 1000 nM in test [3] and not above 10 nM in test [4].
Consider `[2H]C([2H])([2H])n1c(=O)n2c3c4c(c(-c5cn(C)nc5OC)[nH]c4ncc31)-c1ccc(cc1)C1(/C=C/C[C@]3(NC(=O)C4CC4)CC[C@@H]2CC3)CC1` [Example 6, N-((1′s,4′s,E)-7′-(3-Methoxy-1-methyl-1H-pyrazol-4-yl)-3′-(methyl-d3)-2′-oxospiro[cyclopropane-1,7′-2(8,1)-imidazo[4,5-d]pyrrolo[2,3-b]pyridina-1(1,4)-benzena-3(1,4)-cyclohexanacycloheptaphanen]-5′-en-4′-yl)cyclopropanecarboxamide], for which the IC50 is not above 10 nM in test [1], more than 1000 nM in test [2], more than 1000 nM in test [3] and not above 10 nM in test [4].
For the compound `[2H]C([2H])([2H])n1c(=O)n2c3c4c(c(-c5cnn(CCOC)c5)[nH]c4ncc31)-c1ccc(cc1)OCC/C=C/C[C@]1(NC(=O)[C@H]3C[C@H]3F)CC[C@@H]2CC1` [Example 8, (1R,2R)-2-Fluoro-N-((3^1S,3^4s,E)-2^7-(1-(2-methoxyethyl)-1H-pyrazol-4-yl)-2^3-(methyl-d3)-2^2-oxo-2^1,2^2,2^3,2^6-tetrahydro-9-oxa-2(8,1)-imidazo[4,5-d]pyrrolo[2,3-b]pyridina-1(1,4)-benzena-3(1,4)-cyclohexanacyclononaphan-5-en-3^4-yl)cyclopropane-1-carboxamide], the IC50 in test [1] was not above 10 nM; in test [2], 500 to 1000 nM; in test [3], 500 to 1000 nM; in test [4], not above 10 nM.
In the case of `[2H]C([2H])([2H])n1c(=O)n2c3c4c(c(-c5cn(C)nc5OC)[nH]c4ncc31)-c1ccc(cc1)OCCC/C=C/C[C@]1(NC(=O)C3CC3)CC[C@@H]2CC1` [Example 3, N-((3^1s,3^4s,E)-2^7-(3-Methoxy-1-methyl-1H-pyrazol-4-yl)-2^3-(methyl-d3)-2^2-oxo-2^1,2^2,2^3,2^6-tetrahydro-10-oxa-2(8,1)-imidazo[4,5-d]pyrrolo[2,3-b]pyridina-1(1,4)-benzena-3(1,4)-cyclohexanacyclodecaphan-5-en-3^4-yl)cyclopropanecarboxamide], the IC50 in test [1] is not above 10 nM; in test [2] it was more than 1000 nM; in test [3], more than 1000 nM; in test [4] it was not above 10 nM.
For the compound “N-((3^1r,3^4s)-2^7-(3-Methoxy-1-methyl-1H-pyrazol-4-yl)-2^3-(methyl-d3)-2^2-oxo-2^1,2^2,2^3,2^6-tetrahydro-8-oxa-2(8,1)-imidazo[4,5-d]pyrrolo[2,3-b]pyridina-1(1,4)-benzena-3(1,4)-cyclohexanacyclooctaphane-3^4-yl)cyclopropanecarboxamide [Example 5]”, the IC50 is not above 10 nM in test [1], more than 1000 nM in test [2], more than 1000 nM in test [3] and not above 10 nM in test [4].
Take `[2H]C([2H])([2H])n1c(=O)n2c3c4c(c(-c5cn(C)nc5OC)[nH]c4ncc31)-c1ccc(cc1)OC/C=C/C[C@]1(NC(=O)C3CC3)CC[C@@H]2CC1` [Example 1, N-((3^1s,3^4s,E)-2^7-(3-Methoxy-1-methyl-1H-pyrazol-4-yl)-2^3-(methyl-d3)-2^2-oxo-2^1,2^2,2^3,2^6-tetrahydro-8-oxa-2(8,1)-imidazo[4,5-d]pyrrolo[2,3-b]pyridina-1(1,4)-benzena-3(1,4)-cyclohexanacyclooctaphan-5-en-3^4-yl)cyclopropanecarboxamide]: the IC50 was not above 10 nM in test [1], more than 1000 nM in test [2], more than 1000 nM in test [3] and not above 10 nM in test [4].

Usually IC50 stands for the concentration needed to halve the response being measured.
